The test deals with T1, Neuropeptide Y receptor type 5 (Homo sapiens, UniProt Q15761).
T1 sequence (Q15761 whole entry): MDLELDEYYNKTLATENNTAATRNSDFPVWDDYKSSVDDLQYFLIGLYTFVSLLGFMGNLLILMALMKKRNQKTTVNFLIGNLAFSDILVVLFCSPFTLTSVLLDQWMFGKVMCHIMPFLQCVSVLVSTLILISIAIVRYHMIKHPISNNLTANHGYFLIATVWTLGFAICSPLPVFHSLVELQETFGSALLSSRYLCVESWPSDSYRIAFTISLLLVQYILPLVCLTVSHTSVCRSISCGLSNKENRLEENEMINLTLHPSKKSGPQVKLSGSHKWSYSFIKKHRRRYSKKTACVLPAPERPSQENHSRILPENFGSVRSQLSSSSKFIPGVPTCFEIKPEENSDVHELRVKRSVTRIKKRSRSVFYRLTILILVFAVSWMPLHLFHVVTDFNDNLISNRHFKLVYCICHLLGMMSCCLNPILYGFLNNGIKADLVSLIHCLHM
Nature of the test: Inhibition of [125I]-PYY binding to recombinant NPY Y5 receptor on HEK293 cell membranes. It counts as cell-based.
By IC50 is commonly meant the point on the concentration scale where inhibition reaches its midpoint. In the case of `O=C(CN1CCC(NS(=O)(=O)c2ccccc2)CC1)NC1CCc2cc(F)ccc2C1Cc1cccnc1` (configuration not stated), the IC50 amounted to 0.01 µM.

In the case of `N[C@@H](CCCCNS(=O)(=O)c1ccccc1F)C(=O)NC1CCc2cc(F)ccc2C1Cc1cccnc1` (some centres not stated), the IC50 was 0.022 µM. As for `O=C(NC1CCc2cc(F)ccc2C1Cc1cccnc1)[C@H]1CC[C@H](CNS(=O)(=O)c2ccccc2F)CC1` (some centres not stated), the IC50 was 0.012 µM. In the case of `C=CCC1c2ccc(O)cc2CCC1NC[C@H]1CC[C@H](CNS(=O)(=O)c2ccccc2)CC1` (some centres not stated) it was 0.005 µM; in that of `C=CCC1c2ccc(F)cc2CCC1NC[C@H]1CC[C@H](CNS(=O)(=O)c2ccccc2)CC1` (some centres not stated), 0.021 µM; in that of `O=C(CN1CCC(NS(=O)(=O)c2ccccc2)C1)NC1CCc2cc(F)ccc2C1Cc1cccnc1` (configuration not stated), 0.011 µM. In the case of `O=C(NC1CCc2cc(F)ccc2C1Cc1cccnc1)[C@H]1CC[C@H](CNS(=O)(=O)c2ccccc2)CC1` (some centres not stated) it was 0.04 µM. The figure for `COc1ccc2c(c1)CCC(NC[C@H]1CC[C@H](CNS(=O)(=O)c3ccc4ccccc4c3)CC1)C2Cc1ccccc1` (some centres not stated) is 0.443 µM; for `O=S(=O)(NC[C@H]1CC[C@H](CNC2CCc3cc(O)ccc3C2Cc2cccnc2)CC1)c1ccccc1F` (some centres not stated) it is 0.007 µM; for `COc1ccc2c(c1)CCC(NC[C@H]1CC[C@H](CNS(=O)(=O)c3ccccc3F)CC1)C2Cc1cccnc1` (some centres not stated) it is 0.023 µM. Take `N[C@@H](CCCCNS(=O)(=O)c1ccccc1F)CNC1CCc2cc(O)ccc2C1Cc1cccnc1` (some centres not stated): the IC50 was 0.001 µM.

For `COc1ccc2c(c1)CCC(NCCc1ccc(OC)c(OC)c1)C2Cc1ccccc1` (configuration not stated), the IC50 turned out to be 0.9 µM.

Turning to `COc1ccc2c(c1)CCC(NC(=O)[C@H]1CC[C@H](CNS(=O)(=O)c3ccccc3)CC1)C2Cc1cccnc1` (some centres not stated), the IC50 was found to be 0.011 µM. In the case of `COc1ccc2c(c1)CCC(NC(=O)[C@H]1CC[C@H](CNS(=O)(=O)c3ccccc3F)CC1)C2Cc1cccnc1` (some centres not stated) it was 0.011 µM. Consider `COc1ccc2c(c1)CCC(NCCCCCCNS(=O)(=O)c1ccccc1)C2Cc1cccnc1` (configuration not stated), for which the IC50 was 0.053 µM.

With `C=CCC1c2ccc(F)cc2CCC1NC(=O)[C@H]1CC[C@H](CNS(=O)(=O)c2ccccc2)CC1` (some centres not stated), the half-inhibitory concentration (IC50) is 0.075 µM.

On to `O=C(CN1CC[C@@H](NS(=O)(=O)c2ccccc2)C1)NC1CCc2cc(F)ccc2C1Cc1cccnc1` (some centres not stated), for which the IC50 was found to be 0.027 µM.

Take `O=S(=O)(NC[C@H]1CC[C@H](CNC2CCc3cc(F)ccc3C2Cc2cccnc2)CC1)c1ccccc1F` (some centres not stated): the IC50 was found to be 0.019 µM. As to `COc1ccc2c(c1)CCC(NC[C@H]1CC[C@H](CNS(=O)(=O)c3ccccc3)CC1)C2Cc1cccnc1` (some centres not stated), the IC50 came to 0.01 µM. In the case of `O=S(=O)(NC[C@H]1CC[C@H](CNC2CCc3cc(F)ccc3C2Cc2cccnc2)CC1)c1ccccc1` (some centres not stated) it was 0.027 µM. Consider `COc1ccc2c(c1)CCC(NC[C@H]1CC[C@H](CNS(=O)(=O)c3ccc4ccccc4c3)CC1)C2Cc1cccnc1` (some centres not stated), for which the IC50 was 0.337 µM. In the case of `O=C(CN1CC[C@H](NS(=O)(=O)c2ccccc2)C1)NC1CCc2cc(F)ccc2C1Cc1cccnc1` (some centres not stated) it was 0.005 µM.

The values are drawn from ChEMBL document CHEMBL1133574, “alpha-Substituted N-(sulfonamido)alkyl-beta-aminotetralins: potent and selective neuropeptide Y Y5 receptor antagonists” (J Med Chem, 2000).
